Results on 6 compounds are retold here after ChEMBL document CHEMBL1134967, “Identification of novel inhibitors of fibroblast growth factor (FGF-2) binding to heparin and endothelial cell survival from a structurally diverse carbohybrid library” (Bioorg Med Chem Lett, 2002).

pIC50: −log10 of the molar value. Where “and” joins values, the source holds several entries; their conditions need not be identical. Identical values can stand only once.

In assay [1] the target is T1, Fibroblast growth factor 2 (Homo sapiens, UniProt P09038). The assay is described as follows: 24% inhibition of FGF-2 binding to heparin-albumin by ELISA.
In assay [2] the target is T1, Fibroblast growth factor 2. The assay is described as follows: Inhibition of Fibroblast growth factor 2 binding to heparin-albumin in ELISA. (ELISA stands for enzyme-linked immunosorbent assay.)
The target of assay [3] is T1, Fibroblast growth factor 2. The assay is described as follows: 23% inhibition of FGF-2 binding to heparin-albumin by ELISA.
In assay [4] the target is T1, Fibroblast growth factor 2. The assay is described as follows: 25% inhibition of FGF-2 binding to heparin-albumin by ELISA.

T1 sequence (P09038 143-288 limits assumed): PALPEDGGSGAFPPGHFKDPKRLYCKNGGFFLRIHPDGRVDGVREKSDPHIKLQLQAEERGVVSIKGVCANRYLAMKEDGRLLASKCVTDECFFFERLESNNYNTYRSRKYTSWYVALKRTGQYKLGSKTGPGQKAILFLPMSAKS

In the case of `O=C(COc1ccc(Cl)cc1Cl)NC1OC(C(=O)O)C(O)C(O)C1O` (stereo not given), the pIC50 (in general, −log10 of the IC50, conventionally taken in molar units) in assay [1] was 7.60. Besides, the Imax in assay [2] amounted to 24%. In turn, `O=C(NC1OC(C(=O)O)C(O)C(O)C1O)c1cccs1` (stereo not given) had an Imax in assay [2] of 40%. In assay [3], `COc1cc(C(=O)NC2OC(C(=O)O)C(O)C(O)C2O)cc(OC)c1OC` (stereo not given) showed a pIC50 of 6.82. Besides, the Imax in assay [2] was 23%.

For the compound `O=C(NC1OC(C(=O)O)C(O)C(O)C1O)c1ccncc1` (stereo not given), the Imax in assay [2] was 45%. As for `O=C(O)[C@@H]1O[C@@H](OCCN2C(=O)CCC2=O)[C@@H](O)[C@@H](O)[C@@H]1O`, the pIC50 in assay [4] was > 6.50 and 6.47. Besides, the Imax in assay [2] was found to be 25%. As to `O=C(NC1OC(C(=O)O)C(O)C(O)C1O)c1ccc(F)c(F)c1` (stereo not given), in assay [4], the pIC50 was 4.48. Besides, the Imax in assay [2] turned out to be 39%.
